Patent US20080139558A1, “QUINOLONES USEFUL AS INDUCIBLE NITRIC OXIDE SYNTHASE INHIBITORS” (KALYPSYS, INC., priority 2006, published 2008)

The compounds below were run against T1, human iNOS (Homo sapiens, UniProt P35228) (assay: DAN assay of nitric oxide production (hiNOS)). Conditions: enzyme expressed in HEK293 cells transiently transfected with human iNOS.
T1 construct: expressed in transfected cells; host or cells: HEK293
Assay type: cell-based
Procedure, shortened: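 Human iNOS transiently expressed in HEK293 cells; NO production quantified as nitrite via 2,3-diaminonaphthalene reaction forming fluorescent naphthotriazole.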

T1 sequence (P35228 whole entry): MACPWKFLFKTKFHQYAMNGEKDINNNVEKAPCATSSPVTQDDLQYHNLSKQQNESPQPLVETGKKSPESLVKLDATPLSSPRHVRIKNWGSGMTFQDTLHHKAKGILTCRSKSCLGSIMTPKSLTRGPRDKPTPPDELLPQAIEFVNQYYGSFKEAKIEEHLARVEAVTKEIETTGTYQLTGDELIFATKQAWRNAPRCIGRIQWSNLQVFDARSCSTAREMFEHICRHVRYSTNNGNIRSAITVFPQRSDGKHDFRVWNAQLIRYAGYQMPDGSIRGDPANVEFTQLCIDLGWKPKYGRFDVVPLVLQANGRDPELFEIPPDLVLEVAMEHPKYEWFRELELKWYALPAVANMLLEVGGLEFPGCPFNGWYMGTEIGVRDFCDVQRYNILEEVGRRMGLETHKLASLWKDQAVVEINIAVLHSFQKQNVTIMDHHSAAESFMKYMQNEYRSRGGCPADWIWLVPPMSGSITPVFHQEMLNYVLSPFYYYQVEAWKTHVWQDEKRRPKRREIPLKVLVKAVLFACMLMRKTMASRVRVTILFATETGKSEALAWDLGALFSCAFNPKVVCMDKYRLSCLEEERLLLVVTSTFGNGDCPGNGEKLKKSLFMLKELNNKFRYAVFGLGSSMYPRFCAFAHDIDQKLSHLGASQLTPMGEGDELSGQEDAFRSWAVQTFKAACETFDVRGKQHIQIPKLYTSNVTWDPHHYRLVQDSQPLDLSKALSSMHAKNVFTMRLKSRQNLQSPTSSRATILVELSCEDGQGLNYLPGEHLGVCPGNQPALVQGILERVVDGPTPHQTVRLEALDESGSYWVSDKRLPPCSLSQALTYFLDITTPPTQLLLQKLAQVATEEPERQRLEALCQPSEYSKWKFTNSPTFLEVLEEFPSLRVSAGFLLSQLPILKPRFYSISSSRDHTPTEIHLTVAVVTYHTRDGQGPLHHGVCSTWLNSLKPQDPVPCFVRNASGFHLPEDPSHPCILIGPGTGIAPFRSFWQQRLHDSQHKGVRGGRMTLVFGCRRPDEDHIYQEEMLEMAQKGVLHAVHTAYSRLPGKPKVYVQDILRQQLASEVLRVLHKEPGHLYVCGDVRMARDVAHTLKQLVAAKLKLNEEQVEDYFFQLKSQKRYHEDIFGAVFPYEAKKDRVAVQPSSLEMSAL

Compound	EC50 [µM]
N#Cc1ccccc1C(=O)N(Cc1cc(=O)[nH]c2c(F)cccc12)c1cccc(Cl)c1 [Example 64, N-(3-Chlorophenyl)-2-cyano-N-((8-fluoro-2-oxo-1,2-dihydroquinolin-4-yl)methyl)benzamide]	> 5
Cc1nc(N(C)C)sc1C(=O)N(Cc1cc(=O)[nH]c2ccccc12)c1ccccc1 [Example 100, 2-(Dimethylamino)-4-methyl-N-((2-oxo-1,2-dihydroquinolin-4-yl)methyl)-N-phenylthiazole-5-carboxamide]	≤ 5
O=c1cc(CN2CCN(c3ccccc3F)CC2)c2ccccc2[nH]1 [Example 106, 4-((4-(2-Fluorophenyl)piperazin-1-yl)methyl)quinolin-2(1H)-one]	> 5
Cc1nc2ccccc2n1Cc1cc(=O)[nH]c2c(F)c(F)ccc12 [Example 190, 7,8-Difluoro-4-((2-methyl-1H-benzo[d]imidazol-1-yl)methyl)quinolin-2(1H)-one]	> 5
O=c1cc(Cn2c(-c3ccccc3C(F)(F)F)nc3ccccc32)c2ccc(F)c(F)c2[nH]1 [Example 245, 7,8-Difluoro-4-((2-(2-(trifluoromethyl)phenyl)-1H-benzo[d]imidazol-1-yl)methyl)quinolin-2(1H)-one]	≤ 5
Cc1ncsc1C(=O)N(Cc1cc(=O)[nH]c2ccccc12)c1ccc(F)c(F)c1 [Example 41]	> 5
